Measurements published in PubChem BioAssay AID248 (DTP/NCI, 2004).
Values joined by “and” are separate entries in the source; they are usually repeats but may differ in a detail not shown here. Equal values may be shown once. Inconclusive results and toxic doses are left out. Rule as the data show it: active = T/C of 150% or more; inactive = T/C below 125%.

Tested on: L1210 leukemia ip in BDF1 mice, survival T/C
Assay: NCI In Vivo Anticancer Drug Screen. Data for tumor model L1210 Leukemia (intraperitoneal) in B6D2F1 (BDF1) mice
Conditions: higher = longer survival
How it was run: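 Mice bearing the transplanted tumor received compound or vehicle. Survival of the treated group was divided by that of the vehicle-treated control group to give the ratio.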

Measured: T/C

CO[C@H](C(=O)[C@@H](O)[C@@H](C)O)[C@@H]1Cc2cc3cc(OC4CC(OC5CC(O)C(O)C(C)O5)C(O)C(C)O4)c(C)c(O)c3c(O)c2C(=O)[C@H]1OC1CC(OC2CC(OC3CC(C)(O)C(O)C(C)O3)C(O)C(C)O2)C(O)C(C)O1 (stereo not given in full)
inactive: endpoint: mean survival time, dose: 0.13 mg/kg/injection, schedule: Q01DX001 (iv), vehicle: water 86 % of control | endpoint: mean survival time, dose: 0.15 mg/kg/injection, schedule: Q01DX015 (ip), vehicle: saline 93 % of control | endpoint: mean survival time, dose: 0.25 mg/kg/injection, schedule: Q01DX001 (ip), vehicle: water 104 % of control | endpoint: mean survival time, dose: 0.25 mg/kg/injection, schedule: Q01DX001 (iv), vehicle: water 96 % of control | endpoint: mean survival time, dose: 0.25 mg/kg/injection, schedule: Q01DX Z (ip), vehicle: saline 98 % of control | endpoint: mean survival time, dose: 0.31 mg/kg/injection, schedule: Q01DX015 (ip), vehicle: saline 104 % of control | endpoint: mean survival time, dose: 0.37 mg/kg/injection, schedule: Q01DX001 (ip), vehicle: water 98 % of control | endpoint: mean survival time, dose: 0.5 mg/kg/injection, schedule: Q01DX001 (ip), vehicle: saline 98 % of control and 101 % of control | endpoint: mean survival time, dose: 0.5 mg/kg/injection, schedule: Q01DX001 (ip), vehicle: water 95 % of control and 97 % of control | endpoint: mean survival time, dose: 0.5 mg/kg/injection, schedule: Q01DX001 (iv), vehicle: water 100 % of control | endpoint: mean survival time, dose: 0.5 mg/kg/injection, schedule: Q01DX Z (ip), vehicle: saline 107 % of control | endpoint: mean survival time, dose: 0.62 mg/kg/injection, schedule: Q01DX015 (ip), vehicle: saline 102 % of control | endpoint: mean survival time, dose: 1.0 mg/kg/injection, schedule: Q01DX001 (ip), vehicle: saline 97 % of control | endpoint: mean survival time, dose: 1.0 mg/kg/injection, schedule: Q01DX Z (ip), vehicle: saline 103 % of control | endpoint: mean survival time, dose: 1.25 mg/kg/injection, schedule: Q01DX001 (ip), vehicle: saline 109 % of control | endpoint: mean survival time, dose: 1.25 mg/kg/injection, schedule: Q01DX015 (ip), vehicle: saline 96 % of control | endpoint: mean survival time, dose: 2.0 mg/kg/injection, schedule: Q01DX001 (ip), vehicle: saline 101 % of control | endpoint: mean survival time, dose: 2.5 mg/kg/injection, schedule: Q01DX001 (ip), vehicle: saline 109 % of control | endpoint: mean survival time, dose: 10.0 mg/kg/injection, schedule: Q01DX001 (ip), vehicle: saline 91 % of control | endpoint: mean survival time, dose: 1.5 micrograms/kg/injection, schedule: Q01DX009 (ip), vehicle: saline 101 % of control and 114 % of control | endpoint: mean survival time, dose: 3.0 micrograms/kg/injection, schedule: Q01DX009 (ip), vehicle: saline 100 % of control and 104 % of control | endpoint: mean survival time, dose: 6.0 micrograms/kg/injection, schedule: Q01DX009 (ip), vehicle: saline 95 % of control and 97 % of control | endpoint: mean survival time, dose: 12.0 micrograms/kg/injection, schedule: Q01DX009 (ip), vehicle: saline 94 % of control and 95 % of control | endpoint: mean survival time, dose: 12.0 micrograms/kg/injection, schedule: Q04DX002 (ip), vehicle: saline 97 % of control and 108 % of control | endpoint: mean survival time, dose: 22.0 micrograms/kg/injection, schedule: Q01DX Z (ip), vehicle: water 97 % of control | endpoint: mean survival time, dose: 22.0 micrograms/kg/injection, schedule: Q02DX Z (ip), vehicle: water 88 % of control | endpoint: mean survival time, dose: 23.0 micrograms/kg/injection, schedule: Q04DX002 (ip), vehicle: saline 101 % of control and 90 % of control | endpoint: mean survival time, dose: 25.0 micrograms/kg/injection, schedule: Q01DX009 (ip), vehicle: saline 99 % of control and 100 % of control | endpoint: mean survival time, dose: 33.0 micrograms/kg/injection, schedule: Q01DX Z (ip), vehicle: water 91 % of control | endpoint: mean survival time, dose: 33.0 micrograms/kg/injection, schedule: Q02DX Z (ip), vehicle: water 96 % of control | endpoint: mean survival time, dose: 45.0 micrograms/kg/injection, schedule: Q04DX002 (ip), vehicle: saline 94 % of control and 103 % of control | endpoint: mean survival time, dose: 50.0 micrograms/kg/injection, schedule: Q01DX009 (ip), vehicle: saline 103 % of control and 110 % of control | endpoint: mean survival time, dose: 50.0 micrograms/kg/injection, schedule: Q01DX Z (ip), vehicle: water 88 % of control | endpoint: mean survival time, dose: 50.0 micrograms/kg/injection, schedule: Q02DX Z (ip), vehicle: water 91 % of control | endpoint: mean survival time, dose: 62.5 micrograms/kg/injection, schedule: Q01DX Z (ip), vehicle: saline 97 % of control | endpoint: mean survival time, dose: 75.0 micrograms/kg/injection, schedule: Q01DX Z (ip), vehicle: water 91 % of control | endpoint: mean survival time, dose: 75.0 micrograms/kg/injection, schedule: Q02DX Z (ip), vehicle: water 97 % of control | endpoint: mean survival time, dose: 90.0 micrograms/kg/injection, schedule: Q04DX002 (ip), vehicle: saline 100 % of control and 106 % of control | endpoint: mean survival time, dose: 125.0 micrograms/kg/injection, schedule: Q01DX009 (ip), vehicle: clinical formulation 103 % of control | endpoint: mean survival time, dose: 125.0 micrograms/kg/injection, schedule: Q01DX009 (ip), vehicle: saline 105 % of control | endpoint: mean survival time, dose: 125.0 micrograms/kg/injection, schedule: Q01DX Z (ip), vehicle: saline 107 % of control | endpoint: mean survival time, dose: 190.0 micrograms/kg/injection, schedule: Q04DX002 (ip), vehicle: saline 87 % of control and 90 % of control | endpoint: mean survival time, dose: 250.0 micrograms/kg/injection, schedule: Q01DX009 (ip), vehicle: clinical formulation 103 % of control | endpoint: mean survival time, dose: 250.0 micrograms/kg/injection, schedule: Q01DX009 (ip), vehicle: saline 107 % of control | endpoint: mean survival time, dose: 250.0 micrograms/kg/injection, schedule: Q01DX Z (ip), vehicle: saline 109 % of control | endpoint: mean survival time, dose: 370.0 micrograms/kg/injection, schedule: Q04DX002 (ip), vehicle: saline 97 % of control and 103 % of control | endpoint: mean survival time, dose: 375.0 micrograms/kg/injection, schedule: Q01DX009 (ip), vehicle: saline 108 % of control | endpoint: mean survival time, dose: 500.0 micrograms/kg/injection, schedule: Q01DX009 (ip), vehicle: clinical formulation 108 % of control | endpoint: mean survival time, dose: 500.0 micrograms/kg/injection, schedule: Q01DX009 (ip), vehicle: saline 113 % of control | endpoint: mean survival time, dose: 500.0 micrograms/kg/injection, schedule: Q01DX Z (ip), vehicle: saline 113 % of control | endpoint: mean survival time, dose: 750.0 micrograms/kg/injection, schedule: Q01DX009 (ip), vehicle: saline 108 % of control | endpoint: mean survival time, dose: 1000.0 micrograms/kg/injection, schedule: Q01DX009 (ip), vehicle: clinical formulation 109 % of control | endpoint: mean survival time, dose: 1000.0 micrograms/kg/injection, schedule: Q01DX009 (ip), vehicle: saline 114 % of control | endpoint: mean survival time, dose: 1500.0 micrograms/kg/injection, schedule: Q01DX009 (ip), vehicle: saline 108 % of control | endpoint: mean survival time, dose: 3000.0 micrograms/kg/injection, schedule: Q01DX009 (ip), vehicle: saline 113 % of control | endpoint: median survival time, dose: 0.25 mg/kg/injection, schedule: Q01DX009 (ip), vehicle: saline 100 % of control and 111 % of control | endpoint: median survival time, dose: 0.5 mg/kg/injection, schedule: Q01DX009 (ip), vehicle: saline 106 % of control and 122 % of control

NC(N)(C(F)(F)F)C(F)(F)F
inactive: endpoint: mean survival time, dose: 100.0 mg/kg/injection, schedule: Q01DX001 (ip), vehicle: saline 101 % of control | endpoint: mean survival time, dose: 200.0 mg/kg/injection, schedule: Q01DX001 (ip), vehicle: saline 102 % of control | endpoint: mean survival time, dose: 400.0 mg/kg/injection, schedule: Q01DX001 (ip), vehicle: saline 98 % of control

O=c1n(-c2ccccc2)c(=O)n2n1C1/C=C\C=C/C2C2CCC21 (stereo not given)
inactive: endpoint: mean survival time, dose: 12.5 mg/kg/injection, schedule: Q01DX009 (ip), vehicle: saline with Tween-80 92 % of control | endpoint: mean survival time, dose: 12.5 mg/kg/injection, schedule: Q04DX003 (ip), vehicle: saline with Tween-80 100 % of control | endpoint: mean survival time, dose: 25.0 mg/kg/injection, schedule: Q01DX009 (ip), vehicle: saline with Tween-80 95 % of control | endpoint: mean survival time, dose: 25.0 mg/kg/injection, schedule: Q04DX003 (ip), vehicle: saline with Tween-80 95 % of control | endpoint: mean survival time, dose: 50.0 mg/kg/injection, schedule: Q04DX003 (ip), vehicle: saline with Tween-80 87 % of control

N#CCCCCSC12CC3CC(CC(C3)C1)C2
inactive: endpoint: mean survival time, dose: 100.0 mg/kg/injection, schedule: Q04DX002 (ip), vehicle: Klucel (hydroxypropylcellulose) (HPC) 115 % of control | endpoint: mean survival time, dose: 200.0 mg/kg/injection, schedule: Q04DX002 (ip), vehicle: Klucel (hydroxypropylcellulose) (HPC) 108 % of control | endpoint: mean survival time, dose: 400.0 mg/kg/injection, schedule: Q04DX002 (ip), vehicle: Klucel (hydroxypropylcellulose) (HPC) 89 % of control

CCc1ccccc1NC(=O)c1ccccc1Cl
inactive: endpoint: mean survival time, dose: 100.0 mg/kg/injection, schedule: Q01DX009 (ip), vehicle: other 97 % of control | endpoint: mean survival time, dose: 100.0 mg/kg/injection, schedule: Q04DX003 (ip), vehicle: saline with Tween-80 102 % of control | endpoint: mean survival time, dose: 200.0 mg/kg/injection, schedule: Q01DX009 (ip), vehicle: other 95 % of control | endpoint: mean survival time, dose: 200.0 mg/kg/injection, schedule: Q04DX003 (ip), vehicle: saline with Tween-80 101 % of control | endpoint: mean survival time, dose: 400.0 mg/kg/injection, schedule: Q01DX009 (ip), vehicle: other 89 % of control | endpoint: mean survival time, dose: 400.0 mg/kg/injection, schedule: Q04DX003 (ip), vehicle: saline with Tween-80 93 % of control

CCCCCCC(=O)C(O)C(O)C(=O)CCCCCCCC(=O)O (stereo not given)
inactive: endpoint: mean survival time, dose: 100.0 mg/kg/injection, schedule: Q04DX002 (ip), vehicle: other 91 % of control | endpoint: mean survival time, dose: 200.0 mg/kg/injection, schedule: Q04DX002 (ip), vehicle: other 98 % of control | endpoint: mean survival time, dose: 400.0 mg/kg/injection, schedule: Q04DX002 (ip), vehicle: other 102 % of control

CCOC(=O)CCCCCCCCCCOc1ccc(C(C)=O)cc1
inactive: endpoint: mean survival time, dose: 100.0 mg/kg/injection, schedule: Q04DX003 (ip), vehicle: Klucel (hydroxypropylcellulose) (HPC) 94 % of control | endpoint: mean survival time, dose: 200.0 mg/kg/injection, schedule: Q04DX003 (ip), vehicle: Klucel (hydroxypropylcellulose) (HPC) 100 % of control | endpoint: mean survival time, dose: 400.0 mg/kg/injection, schedule: Q04DX003 (ip), vehicle: Klucel (hydroxypropylcellulose) (HPC) 97 % of control
